16 molecules from patent US20080161366A1, “AMINOALKYL SUBSTITUTED ARYL SULFAMIDE DERIVATIVES AND METHODS OF THEIR USE” (Wyeth, priority 2006, published 2008) can be followed below.

Molecules are shown by their SMILES. Structures can show the parent of a compound that is named as a salt.

What is called IC50 is the midpoint of a concentration-inhibition curve.

human norepinephrine transporter (hNET), sequence (P23975 whole entry): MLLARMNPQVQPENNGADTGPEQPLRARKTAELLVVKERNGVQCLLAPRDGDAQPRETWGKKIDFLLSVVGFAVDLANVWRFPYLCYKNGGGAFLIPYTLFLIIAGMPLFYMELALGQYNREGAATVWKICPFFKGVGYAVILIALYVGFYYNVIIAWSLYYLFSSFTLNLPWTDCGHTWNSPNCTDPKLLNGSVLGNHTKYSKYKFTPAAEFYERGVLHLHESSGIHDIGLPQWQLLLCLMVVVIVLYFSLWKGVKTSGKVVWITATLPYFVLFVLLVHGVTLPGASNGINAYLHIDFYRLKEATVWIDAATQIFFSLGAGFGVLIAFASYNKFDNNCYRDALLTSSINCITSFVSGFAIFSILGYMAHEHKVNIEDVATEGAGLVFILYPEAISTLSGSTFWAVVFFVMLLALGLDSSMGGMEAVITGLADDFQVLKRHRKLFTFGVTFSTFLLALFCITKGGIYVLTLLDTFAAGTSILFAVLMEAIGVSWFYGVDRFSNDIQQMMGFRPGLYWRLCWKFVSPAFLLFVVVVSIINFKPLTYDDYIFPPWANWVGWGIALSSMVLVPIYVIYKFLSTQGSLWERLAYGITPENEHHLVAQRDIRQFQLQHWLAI

This assay has as its target human norepinephrine transporter (hNET) (Homo sapiens, UniProt P23975). The assay is described as follows: hNET uptake, Protocol B: cell based norepinephrine reuptake assay using recombinant hNET (MDCK-Net6 cells). The following applies: NE uptake (Protocol B) IC50 (nM), MDCK-Net6 cells, 3H-NE 16 nM.
Turning to `CNCCCN1c2ccccc2N(c2ccc(Cl)cc2)S1(=O)=O` [Example 1, 3-[3-(4-chlorophenyl)-2,2-dioxido-2,1,3-benzothiadiazol-1(3H)-yl]-N-methylpropan-1-amine], the IC50 was found to be 20.5 nM. With `CNCCCN1c2ccccc2N(c2ccccc2)S1(=O)=O` [Example 5, 3-(2,2-dioxido-3-phenyl-2,1,3-benzothiadiazol-1(3H)-yl)-N-methylpropan-1-amine], the half-inhibitory concentration (IC50) was determined as 2.63 nM. For `CNCCCN1c2ccccc2N(c2ccc(F)cc2)S1(=O)=O` [Example 6, 3-[3-(4-fluorophenyl)-2,2-dioxido-2,1,3-benzothiadiazol-1(3H)-yl]-N-methylpropan-1-amine] the value was 6.87 nM; for `CNCCCN1c2ccccc2N(c2ccc(OC)cc2)S1(=O)=O` [Example 7, 3-[3-(4-methoxyphenyl)-2,2-dioxido-2,1,3-benzothiadiazol-1(3H)-yl]-N-methylpropan-1-amine], 1780 nM; for `CNCCCN1c2ccccc2N(c2ccc(C)cc2)S1(=O)=O` [Example 8, N-methyl-3-[3-(4-methylphenyl)-2,2-dioxido-2,1,3-benzothiadiazol-1(3H)-yl]propan-1-amine], 35.7 nM. The figure for `CNCCCN1c2ccccc2N(c2ccccc2OC)S1(=O)=O` [Example 9, 3-[3-(2-methoxyphenyl)-2,2-dioxido-2,1,3-benzothiadiazol-1(3H)-yl]-N-methylpropan-1-amine] is 12.6 nM; for `CNCCCN1c2ccccc2N(c2cccc(F)c2)S1(=O)=O` [Example 12, 3-[3-(3-fluorophenyl)-2,2-dioxido-2,1,3-benzothiadiazol-1(3H)-yl]-N-methylpropan-1-amine] it is 12.2 nM. Turning to `CNCCCN1c2ccccc2N(c2cccc3ccccc23)S1(=O)=O` [Example 13, N-methyl-3-[3-(1-naphthyl)-2,2-dioxido-2,1,3-benzothiadiazol-1(3H)-yl]propan-1-amine], the IC50 was determined as 534 nM. As to `CNCCCN1c2ccccc2N(c2ccc3ccccc3c2)S1(=O)=O` [Example 14, N-methyl-3-[3-(2-naphthyl)-2,2-dioxido-2,1,3-benzothiadiazol-1(3H)-yl]propan-1-amine], the IC50 turned out to be 2620 nM. The figure for `CNCCCN1c2ccccc2N(c2cccc(C)c2)S1(=O)=O` [Example 15, N-methyl-3-[3-(3-methylphenyl)-2,2-dioxido-2,1,3-benzothiadiazol-1(3H)-yl]propan-1-amine] is 96.2 nM; for `CNCCCN1c2ccccc2N(c2ccccc2C)S1(=O)=O` [Example 16, N-methyl-3-[3-(2-methylphenyl)-2,2-dioxido-2,1,3-benzothiadiazol-1(3H)-yl]propan-1-amine] it is 7.06 nM; for `CNCCCN1c2ccccc2N(c2cccc(OC)c2)S1(=O)=O` [Example 17, 3-[3-(3-methoxyphenyl)-2,2-dioxido-2,1,3-benzothiadiazol-1(3H)-yl]-N-methylpropan-1-amine] it is 10.8 nM. The figure for `CNCCCCN1c2ccccc2N(c2ccccc2)S1(=O)=O` [Example 18, 4-(2,2-dioxido-3-phenyl-2,1,3-benzothiadiazol-1(3H)-yl)-N-methylbutan-1-amine] is 0.3 nM.

In the case of `CNCCCN1c2cccnc2N(c2ccccc2)S1(=O)=O` [Example 24, 3-(2,2-dioxido-3-phenyl[1,2,5]thiadiazolo[3,4-b]pyridin-1(3H)-yl)-N-methylpropan-1-amine], the IC50 was 60.9 nM. The figure for `CNCCCN1c2cnccc2N(c2ccccc2)S1(=O)=O` [Example 25, 3-(2,2-dioxido-1-phenyl[1,2,5]thiadiazolo[3,4-c]pyridin-3(1H)-yl)-N-methylpropan-1-amine] is 146 nM; for `CNCCCN1c2ccccc2N(c2ccc(C)cn2)S1(=O)=O` [Example 26, N-methyl-3-[3-(5-methylpyridin-2-yl)-2,2-dioxido-2,1,3-benzothiadiazol-1(3H)-yl]propan-1-amine hydrochloride] it is 57.1 nM.
